{"source": "patent US9695205B2", "about": "“Amide compounds for treatment of complement mediated disorders” (Achillion Pharmaceuticals, Inc., priority 2014, dated 2017)", "target": "Human factor D (Homo sapiens (Human), UniProt P00746)", "sequence (P00746 26-253)": "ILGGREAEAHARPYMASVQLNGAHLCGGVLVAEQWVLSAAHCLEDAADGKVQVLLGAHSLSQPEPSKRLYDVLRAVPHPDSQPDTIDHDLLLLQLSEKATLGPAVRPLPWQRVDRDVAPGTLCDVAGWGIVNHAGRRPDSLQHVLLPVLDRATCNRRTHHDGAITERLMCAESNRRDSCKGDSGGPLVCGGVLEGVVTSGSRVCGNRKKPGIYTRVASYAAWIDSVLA", "test": "Human Factor D Assay", "type": "biochemical", "details": "Human factor D 80 nM, substrate Z-L-Lys-SBzl and DTNB 100 μM each, pH 7.5", "experimental": "Example 14. Human Factor D Assay\nHuman factor D (purified from human serum, Complement Technology, Inc.) at 80 nM final concentration is incubated with test compound at various concentrations for 5 minutes at room temperature in 50 mM Tris, 1M NaCl, pH 7.5. A synthetic substrate Z-L-Lys-SBzl and DTNB (Ellman's reagent) are added to final concentrations of 100 μM each. The increase in color is recorded at OD405 nm in a microplate in kinetic mode over 30 minutes with 30 second time points in a spectrofluorimeter. IC50 values are calculated by non-linear regression from the percentage of inhibition of complement factor D activity as a function of test compound concentration.", "data": [{"smiles": "CC(=O)c1cn(CC(=O)N2C[C@H](F)C[C@H]2C(=O)Nc2cccc(-c3ccccc3Cl)c2F)c2ccc(NC(=O)N3CCCC(F)(F)C3)cc12", "note": "[Compound 18, N-(3-acetyl-1-(2-((2S,4R)-2-(2′-chloro-2-fluorobiphenyl-3-ylcarbamoyl)-4-fluoropyrrolidin-1-yl)-2-oxoethyl)-1H-indol-5-yl)-3,3-difluoropiperidine-1-carboxamide]", "values": [{"measurement": "IC50", "result": "< 1", "unit": "µM"}]}]}
